Measured values as given in PMC6042793 (PLoS ONE, 2018).

Assays:
[1] = molecular target: viral sialidase activity of A/Shizuoka/17/2016 (H1N1pdm) (Influenza A virus, UniProt A0A0X9QTS2); format: biochemical; conditions: read-out: IC50 values in the sialidase inhibition assay
[2] = molecular target: viral sialidase activity of A/Shizuoka/30/2014 (H1N1pdm), H275Y (Influenza A virus, UniProt W8DXJ8, H275Y); format: biochemical
[3] = test system: sialidase activity of A/Shizuoka/1573/2009 (H1N1pdm), H275Y; format: biochemical, influenza A virus (H1N1pdm); conditions: pH 6.5
[4] = molecular target: viral sialidase activity of A/Shizuoka/1573/2009 (H1N1pdm), H275Y (Influenza A virus, UniProt C3W5S3, H275Y); format: biochemical; conditions: read-out: IC50 values in the sialidase inhibition assay
[5] = test system: sialidase activity of A/Shizuoka/30/2014 (H1N1pdm), H275Y; format: biochemical, influenza A virus (H1N1pdm); conditions: pH 6.5
[6] = molecular target: viral sialidase activity of A/Shizuoka/19/2016 (H1N1pdm) (Influenza A virus, UniProt A0A0X9QTS2); format: biochemical; conditions: read-out: IC50 values in the sialidase inhibition assay

CCC(CC)[C@H](NC(C)=O)[C@@H]1[C@H](O)[C@@H](C(=O)O)C[C@H]1N=C(N)N [PV, peramivir]
IC50 [1]: 0.05 nM
IC50 for A/Shizuoka/30/2014 relative to that for A/Shizuoka/1573/2009 [2]: 1.9 fold
IC50 ([2]; read-out: IC50 values in the sialidase inhibition assay): 79 nM
BTP3 fluorescence on the membrane in the presence of NAI [3]: strong fluorescence
IC50 [4]: 41 nM
BTP3 fluorescence on the membrane in the presence of NAI [5]: strong fluorescence
IC50 [6]: 0.05 nM

CCOC(=O)C1=C[C@@H](OC(CC)CC)[C@H](NC(C)=O)[C@@H](N)C1 [OV, oseltamivir]
BTP3 fluorescence on the membrane in the presence of NAI [3]: strong fluorescence
BTP3 fluorescence on the membrane in the presence of NAI [5]: strong fluorescence
